In patent publication US10308960B2, “Methods for treating cells containing fusion genes” (University of Pittsburgh—of the Commonwealth System of …, priority 2014, dated 2019):
In brackets after ≈: the same amount, converted by molar mass.

Legend:
[1] = test system: PC3 cells not expressing MAN2A1-FER (Tet−); experiment: Killing of PC3 cells not expressing MAN2A1-FER (Tet−) by kinase inhibitors; format: cell-based, human; conditions: same treatment, cells not expressing the fusion protein (Tet−)
Description: FIG. 23. […] Prostate cancer cell line PC3 was transformed with pCDNA4-MAN2A1-FER-FLAG/pCDNA6. Expression of MAN2A1-FER was induced with 5 μg/mL tetracycline. Cells not treated with tetracycline nor any drug were used as background controls.
The second approach is to target EGFR activation by EGFR inhibitors. These include erlotinib, cetuximab, […], canertinib and […]. Many of these drugs were FDA approved and is widely used in a variety of human solid tumors. To interrogate the effectiveness of EGFR activation interruption in treating prostate cancer, we treated MAN2A1-FER transformed PC3 cells with canertinib.

[2] = test system: PC3 cells expressing MAN2A1-FER; experiment: Killing of MAN2A1-FER expressing PC3 cells by kinase inhibitors; format: cell-based, human; conditions: for cell death: PC3 transformed with pCDNA4-MAN2A1-FER-FLAG/pCDNA6, MAN2A1-FER expressing, Crisotinib low dosage 24 hours; for specific killing of MAN2A1-FER expressing cells (FIG. 23): expression induced with 5 μg/mL tetracycline
NIH3T3 cells = experiment: Ebselen cell growth inhibition, NIH3T3; format: cell-based; conditions: Mus musculus
Source text: (§1) FIG. 26. […] Untransformed RWPE1, NIH3T3 cells and SLC45A2-AMACR transformed PC3 cells treated with (PC3/SLAM tet+) or without tetracycline (PC3/SLAM tet−) were applied with indicated concentration of Ebselen. Cell growths relative to unapplied controls were examined.
(§2) Therapeutic targeting at SLC45A2-AMACR using racemase inhibitor. To investigate whether targeting SLC45A2-AMACR is a viable approach to treat prostate cancer, we chose 2 approaches: 1) To intercept SLC45A2-AMACR/SHIP2-Akt pathway with small molecules; and 2) to block the ectopic racemase activity of SLC45A2-AMACR with ebselen or trifluoro-ibuprofen. […] This is probably due to Pten negative status of PC3 cells such that Akt pathway is fully activated regardless the presence of SLC45A2-AMACR. On the other hand, when we applied ebselen, the potent inhibitor of racemase of AMACR, to SLC45A2-AMACR expressing PC3 cells, 5 fold higher sensitivity of cell growth inhibition was found for PC3 cells transformed with pCDNA4-SLC45A2-AMACR-FLAG/pCDNA6 over the controls.

RWPE1 cells = experiment: Ebselen cell growth inhibition, RWPE1; format: cell-based; conditions: Homo sapiens, RWPE-1
Source text: as §1, §2

[3] = test system: SLC45A2-AMACR transformed PC3 cells without tetracycline (PC3/SLAM tet−); experiment: Ebselen cell growth inhibition, PC3/SLAM tet−; format: cell-based; conditions: Homo sapiens, PC-3
Source text: as §1, §2

[4] = test system: SLC45A2-AMACR transformed PC3 cells treated with tetracycline (PC3/SLAM tet+); experiment: Ebselen cell growth inhibition, PC3/SLAM tet+; format: cell-based, human
Source text: as §1, §2

[5] = test system: PC3 cells containing TMEM135-CCDC67 breakpoint (PC3 + pCMV-BP); experiment: FACS analysis of apoptotic cells (Annexin V), PC3 with breakpoint; format: cell-based, human; conditions: PC3 with breakpoint infected with both adenoviruses
Description: (§3) FIG. 31A-B. Treatment with nucleotide analogue ganciclovir kills cancer cells expressing EGFP-tk. (A) PC3 or DU145 cells containing the TMEM135-CCDC67 fusion gene were infected with pAD5-Cas9^D10A-gRNA^TMEM135int13-gRNA^CCDC67int9 and pAD-TMEM135int13-EGFP-tk-CCDC67int9. These cells were then incubated with various concentrations of ganciclovir for 24 hours. Cell deaths were then quantified with phycoerythrin labeled Annexin V through flow cytometer. PC3 or DU145 cells harboring no TMEM135-CCDC67 breakpoint were used as controls. (B) Representative sample of cell death induced by ganciclovir on cells infected with pAD5-Cas9^D10A-gRNA^TMEM135int13-gRNA^CCDC67int9 and pAD-TMEM135int13-EGFP-tk-CCDC67int9, and treated with 5 μg/ml ganciclovir. PC3 or DU145 cells harboring no TMEM135-CCDC67 breakpoint were used as controls. Apoptosis was indicated by Annexin V staining.
(§4) Fluorescence activated cell sorting (FACS) analysis of apoptotic cells. The assays were previously described.^8-16 Briefly, the cells treated with pAD5-Cas9^D10A-gRNA^TMEM135int13-gRNA^CCDC67int9/pAD-TMEM135int13-EGFP-tk-CDC67int9, and various concentrations of ganciclovir were trypsinized and washed twice with cold PBS. […] The fluorescence stained cells were analyzed at the fluorescence emission at 533 nm (FL2). […] For each acquisition, 10,000 to 20,000 cells were sorted based on the fluorescence color of the cells. […]

[6] = test system: PC3 cells containing TMEM135-CCDC67 breakpoint; experiment: Ganciclovir cell death after co-transfection of TK donor DNA and nickase-gRNA vector, breakpoint cells; format: cell-based, human
Description: (§5) FIG. 28A-B. Genetic therapy targeting at TMEM135-CCDC67 genome breakpoint.
(§6) The technique described above was applied to cells having the TMEM135-CCDC67 breakpoint. Since none of the fusion genes identified so far was present in prostate cancer cell lines, a TMEM135-CCDC67 genome breakpoint was created that is identical to the prostate cancer sample were analyzed. The expression of the TMEM135-CCDC67 breakpoint was driven by a CMV promoter. Subsequently, a donor DNA was constructed that encompassed HSV-1 TK and the splicing sites of TMEM135 exon 14. When this donor DNA was co-transfected with a vector that expresses gRNA targeting at the TMEM135-CCDC67 breakpoint into PC3 cells containing this genome breakpoint, integration of TK into the genome was identified (FIG. 28A). […] This is remarkable in considering only 5-10% transfection efficiency using conventional liposome method. […] In light of this promising result, both TMEM135-CCDC67-TK cassette and NicKase-gRNATMEM135-CCDC67-BrkPt DNA are now in the process of packaging into Adenovirus. We will infect the recombinant virus into these cells in the future experiments. This will dramatically improve the delivery efficiency in the subsequent animal study and probably human.

[7] = test system: DU145 cells containing TMEM135-CCDC67 breakpoint (DU145 + pCMV-BP); experiment: FACS analysis of apoptotic cells (Annexin V), DU145 with breakpoint; format: cell-based; conditions: DU145 with breakpoint infected with both adenoviruses
Description: as §3, §4

[8] = test system: PC3 cells without TMEM135-CCDC67 breakpoint; experiment: Ganciclovir cell death after co-transfection of TK donor DNA and nickase-gRNA vector, cells without breakpoint; format: cell-based, human; conditions: same treatment
Description: as §5, §6

[9] = test system: PC3 cells harboring no TMEM135-CCDC67 breakpoint (PC3 + pCMV); experiment: FACS analysis of apoptotic cells (Annexin V), PC3 without breakpoint; format: cell-based, human; conditions: PC3, equally infected, ganciclovir up to 100 μg/ml
Description: as §3, §4

[10] = test system: DU145 cells harboring no TMEM135-CCDC67 breakpoint (DU145 + pCMV); experiment: FACS analysis of apoptotic cells (Annexin V), DU145 without breakpoint; format: cell-based; conditions: DU145, equally infected, ganciclovir up to 100 μg/ml
Description: as §3, §4

## C[C@@H](Oc1cc(-c2cnn(C3CCNCC3)c2)cnc1N)c1c(Cl)ccc(F)c1Cl [Crisotinib]
[1]
  killing of cells that do not express MAN2A1-FER: hardly killed
[2]
  cell death: 31%
  specific killing of MAN2A1-FER expressing cells (FIG. 23): specifically kills cells expressing MAN2A1-FER
[2]; dosage effect analysis, expressing vs not expressing
  lowering of cancer killing EC50 by expression of MAN2A1-FER: ~100 fold

## Cn1cnc2c(F)c(Nc3ccc(Br)cc3Cl)c(C(=O)NOCCO)cc21 [AZD6244]
[2]; MEK interception, data not shown
  differential killing effect (MAN2A1-FER expressing vs not): largely moderated and vanished

## O=c1c2ccccc2[se]n1-c1ccccc1 [Ebselen, ebselen]
NIH3T3 cells
  IC50: > 300 µM
RWPE1 cells
  IC50: > 300 µM
[3]
  IC50: 173 µM
[4]; Homo sapiens, PC-3, PC3/SLAM tet+
  IC50: 37 µM
[4]; PC3 transformed with pCDNA4-SLC45A2-AMACR-FLAG/pCDNA6 vs controls
  higher sensitivity of cell growth inhibition over the controls: 5 fold

## Nc1nc2c(ncn2COC(CO)CO)c(=O)[nH]1 [ganciclovir, 9-(1,3-dihydroxy-2-propoxymethyl)guanine]
[5]; Homo sapiens, PC-3, 24 hours, read-out: ganciclovir concentration at which killing reached 50% of its maximal level
  EC50: 0.075 µg/mL (≈ 0.294 µM)
[5]
  ganciclovir concentration at which killing was at the peak: 5 µg/mL
[6]; PC3 with breakpoint co-transfected with donor DNA and gRNA vector, liposome method
  increase of cell death: 8 fold
[6]; transfected with pTMEM135-CCDC67-TK-GFP and pNicKase-RFP-gRNA-TMEM135-CCDC67-BrkPt
  specific killing of breakpoint containing cells (FIG. 28B): specific killing
[7]
  ganciclovir concentration at which killing was at the peak: 5 µg/mL
[7]; Homo sapiens, DU-145, 24 hours, read-out: ganciclovir concentration at which killing reached 50% of its maximal level
  EC50: 0.075 µg/mL (≈ 0.294 µM)
[8]
  cell death: minimal cell death
[9]
  cell deaths in cells containing no breakpoint: No significant cell deaths
[10]
  cell deaths in cells containing no breakpoint: No significant cell deaths

## C=CC(=O)Nc1cc2c(Nc3ccc(F)c(Cl)c3)ncnc2cc1OCCCN1CCOCC1 [canertinib]
[1]
  killing of cells that do not express MAN2A1-FER: minimal
[2]
  cell death: 34%
  specific killing of MAN2A1-FER expressing cells (FIG. 23): specifically kills cells expressing MAN2A1-FER
